Where a SMILES comes first, the peptide text is derived from it. The star is where a group is joined. Cbz = O=C(OCc1ccccc1)*; CH2F = FC*
Legend:
caspase 3 = experiment: Caspase 3 activity in S2-3 and Huh7T cells (Biovision kit); format: cell-based, human; conditions: 40 hours treatment
Description: FIG. 5B. The activation of caspase 3 (CDCA) in S2-3 cells treated with etoposide but not BFA/CHX/Z-VAD. The S2-3 cell and its parental cell Huh7T were either treated with SPDCA inducer BFA/CHX/ZVAD or CDCA inducer etoposide. The caspase activity was determined after […] treatment by Caspase 3 detection kit (Biovision, Mountain View, Calif.).
The same level of apoptosis induced by etoposide in S2-3 cell and Huh7T cell was confirmed by the examination of caspase 3 activity in these cells. After 40 hours treatment, all cells were lysed in […] lysis buffer. […] lysate of each sample was analyzed for caspase 3 activity test using caspase 3 detected kits [Biovision, Mountain View, Calif.]. […] Additionally, the activity of caspase3 was not increased in the cells, in which SPDCA was induced by BFA/CHX, even by double doses [FIG. 5B, B/C/ZX2].

S2-3 cells = experiment: Etoposide induced CDCA in S2-3 cells, annexin stain; format: cell-based, human; conditions: 400 μM etoposide, 40 hours, data not shown
Description: (§1) FIG. 5A. S2-3 and Huh7T cells were treated with CDCA inducer 400 μM etoposide. After 40 hours, the cells apoptosis was examined in microscope and stained with annexin.
(§2) 10^5 S2-3 and Huh7T cells were seeded in 60 mm dishes. When the cell reached 90% confluent, CDCA inducer etoposide was added. After 28-40 hours, the cell shrinkage, blebbing and detachment from culture was found in both cell lines. At the same time, the strong fluorescence stain by annexin was also observed in both cell lines [FIG. 5A]. The amount of apoptotic cells in two cell lines was very similar. Around 62% S2-3 cell was stained by annexin, while 58% of Huh7T cell was stained after 40 hours treatment [data not shown].

G54 cells = experiment: CDCA induced by etoposide in G54 cells; format: cell-based, human; conditions: data not shown
Description: (§3) To study the influence of HCV replication upon SPDCA, G54 and Huh7T cells (its parent cell) were seeded in a 60 mm dish. SPDCA was induced by BFA/CHX/Z-VAD. […] The insensitivity of HCV replicon cell to SPDCA was also seen subsequently by annexin staining. Compared to the parental cells, much fewer HCV expressing cells were stained by annexin after being treated with SPDCA inducers BFA/CHX/Z-VAD [FIG. 8C, Annexin]. DNA fragmentation study also support that the HCV expressing cells were more resistant to apoptosis. 70 hours treatment of BFA/CHX/Z-VAD obviously triggered the DNA fragmentation in Huh7T cell, but not in G54 cells [FIG. 8D]. […] In contrast, both HepG2.215 and G54 are sensitive to CDCA induced by etoposide [data not shown].

Huh7T cells = experiment: Etoposide induced CDCA in Huh7T cells, annexin stain; format: cell-based, human; conditions: 400 μM etoposide, 40 hours, data not shown
Description: as §1, §2

HepG2.215 cells = experiment: CDCA induced by etoposide in HepG2.215 cells; format: cell-based, human; conditions: data not shown
Description: as §3

SPIK RNA = experiment: Northern blot of SPIK RNA in G54 HCV replicon cells after antiviral treatment; format: cell-based, human; conditions: 10^5 IU/ml overnight
Description: (§4) FIG. 7A-7B. SPIK in the HCV expressing cells. SPIK RNA was detected in the cells with/without HCV replicon as before. HCV RNA was defined by the hybridization of membrane with radio-labeled probe specified HCV.
(§5) FIG. 7B—HCV replicon cells were incubated with HCV polymerase inhibitor 888 (2 mM) 2 days (Lines 3 & 4 duplicate) and 10^5 IU/ml interferon-a overnight (Lines 5 & 6 duplicate) or left untreated (Line 1 & 2 duplicate). The suppressions of HCV RNA and SPIK RNA then were analyzed by Northern blot as before. The smear detected by HCV probe under the band of HCV RNA probably was the replication form of HCV.
(§6) Over-expression of SPIK RNA in G54 cells can be abrogated by inhibition of HCV replication. Treatment of HCV replicon cells with either 2 mM of the HCV polymerase inhibitor 888 for two days or 10^5 IU/ml interferon-a overnight has reduced HCV replication by approximately 90% [FIG. 7B, lane 3-6]. This is consistent with previous reports of these antiviral agents (55, 56).

HCV replication = experiment: Northern blot of HCV RNA in HCV replicon cells after antiviral treatment; format: cell-based, Hepatitis C virus; conditions: 10^5 IU/ml overnight
Description: as §4, §5, §6

| Molecule | caspase 3 activity (caspase 3) | cells stained by annexin (S2-3 cells) | sensitivity to CDCA (G54 cells) | cells stained by annexin (Huh7T cells) | sensitivity to CDCA (HepG2.215 cells) | SPIK level (SPIK RNA) | reduction of HCV replication (HCV replication) |
| --- | --- | --- | --- | --- | --- | --- | --- |
| CC(NC(=O)C(NC(=O)OCc1ccccc1)C(C)C)C(=O)NC(CC(=O)O)C(=O)CF (stereo not drawn) [Z-VAD] (Cbz-Val-Ala-Asp-CH2F; configuration not given here) | kept unchanged | – | – | – | – | – | – |
| COc1cc([C@@H]2c3cc4c(cc3[C@@H](O[C@@H]3O[C@@H]5CO[C@@H](C)O[C@H]5[C@H](O)[C@H]3O)[C@H]3COC(=O)[C@H]23)OCO4)cc(OC)c1O [etoposide] | at the same level in both cells | Around 62% | sensitive | 58% | sensitive | – | – |
| interferon-a | – | – | – | – | – | correspondingly decreased with HCV RNA | approximately 90% |

— US8193328B2, “Identification of modulators of serine protease inhibitor Kazal and their use as anti-cancer and anti-viral agents” (Philadelphia Health & Education Corporation, priority 2005, dated 2012)
